Assay results taken from patent publication US20210188773A1, “NOVEL POLYMOPHS OF S-NITROSOCAPTOPRIL (CAP-NO) AND ITS PROCESS FOR PREPARATION” (FUZHOU UNIVERSITY, priority 2018, published 2021).

System: Pulmonary hypertension (PAH) rats
Assay: Effect on monocrotaline (MCT) pulmonary hypertension (PAH) model rats
Assay type: in vivo, rat
Description: Pulmonary hypertension (PAH) rats, being monocrotaline (MCT) intraperitoneal injected, were divided into 4 groups: control group (n=7), 50 mg/kg captopril group (n=7), 10 mg/kg S-nitrosocaptopril group (n=7), 50 mg/kg S-nitrosocaptopril group (n=7) and health group (n=9). Rats of all groups were orally administered once a day for 30 days.

C[C@H](CS)C(=O)N1CCC[C@H]1C(=O)O [captopril, Captopril]
average pleural effusion of dead rats (50 mg/kg oral once a day): 3.3 mL
mean right ventricular mass index (RVMI) (50 mg/kg oral once a day): 53.8%
number of rats remaining (from 7) (50 mg/kg oral once a day for 30 days): 3
